Measured values from patent US11053204B2, “Pyrimidinyloxy benzene derivatives as herbicides” (FMC Corporation, priority 2015, dated 2021).

Experiments:
Format in all cases: in vivo
[1] = system: oilseed rape (Brassica napus); assay: Test C preemergence, plant response rating; settings: Preemergence
In short: (§1)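 Pre-emergence: seeds sown in loam soil–sand blend or silt loam and sprayed with test chemicals in a non-phytotoxic solvent mixture with surfactant. Post-emergence: plants 2 to 18 cm (1- to 4-leaf stage) in peat-based potting medium, same formulation. Greenhouse 13 to 15 d; visual rating 0 (no effect) to 100 (complete control) versus controls.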

[2] = system: waterhemp (common waterhemp, Amaranthus rudis); assay: Test C preemergence, plant response rating; settings: Preemergence
In short: as §1

[3] = system: blackgrass (Alopecurus myosuroides); assay: Test C preemergence, plant response rating; settings: Preemergence
In short: as §1

[4] = system: ragweed (common ragweed, Ambrosia elatior); assay: Test C preemergence, plant response rating; settings: Preemergence
In short: as §1

[5] = system: wheat (winter wheat, Triticum aestivum); assay: Test C preemergence, plant response rating; settings: Preemergence
In short: as §1

[6] = system: lambsquarters (Chenopodium album); assay: Test C preemergence, plant response rating; settings: Preemergence
In short: as §1

[7] = system: ryegrass, Italian (Italian ryegrass, Lolium multiflorum); assay: Test C preemergence, plant response rating; settings: Preemergence
In short: as §1

soybean (Glycine max) = assay: Test C preemergence, plant response rating; settings: Preemergence
In short: as §1

corn (Zea mays) = assay: Test C preemergence, plant response rating; settings: Preemergence
In short: as §1

[8] = system: nutsedge, yellow (yellow nutsedge, Cyperus esculentus); assay: Test C preemergence, plant response rating; settings: Preemergence
In short: as §1

[9] = system: morningglory (Ipomoea coccinea); assay: Test C preemergence, plant response rating; settings: Preemergence
In short: as §1

[10] = system: velvetleaf (Abutilon theophrasti); assay: Test C preemergence, plant response rating; settings: Preemergence
In short: as §1

[11] = system: foxtail, giant (giant foxtail, Setaria faberii); assay: Test C preemergence, plant response rating; settings: Preemergence
In short: as §1

[12] = system: crabgrass, large (large crabgrass, Digitaria sanguinalis); assay: Test C preemergence, plant response rating; settings: Preemergence
In short: as §1

[13] = system: sedge, umbrella (small-flower umbrella sedge, Cyperus difformis); assay: Test B flooded paddy test, plant response rating; settings: 250 g ai/ha; Flood; scale of 0 to 100 where 0 is no effect and 100 is complete control; 13 to 15 days
In short: (§2)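 Under a constant 3 cm flood, test compounds went directly into the paddy water. Following 13 to 15 days of greenhouse growth, treated species and controls were compared by eye.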

rice (Oryza sativa) = assay: Test B flooded paddy test, plant response rating; settings: 250 g ai/ha; Flood; scale of 0 to 100 where 0 is no effect and 100 is complete control; 13 to 15 days
In short: as §2

[14] = system: barnyardgrass (Echinochloa crus-galli); assay: Test B flooded paddy test, plant response rating; settings: 250 g ai/ha; Flood; scale of 0 to 100 where 0 is no effect and 100 is complete control; 13 to 15 days
In short: as §2

O=C(CCCC(F)(F)F)c1c(Br)cccc1Oc1ncc(Cl)cn1 [Compound 77]
35: Plant response rating, Ryegrass, Italian ([7]; 62 g ai/ha, scale 0 to 100) | Plant response rating, Corn (corn (Zea mays); 125 g ai/ha, scale of 0 to 100) | Plant response rating, Morningglory ([9]; 62 g ai/ha, scale 0 to 100)
20: Plant response rating, Corn (corn (Zea mays); 62 g ai/ha, scale of 0 to 100) | Plant response rating, Morningglory ([9]; 31 g ai/ha, scale 0 to 100)
45: Plant response rating, Ragweed ([4]; 125 g ai/ha, scale of 0 to 100)
0: Plant response rating, Oilseed Rape ([1]; 16 g ai/ha, scale 0 to 100) | Plant response rating, Ragweed ([4]; 16 g ai/ha, scale 0 to 100) | Plant response rating, Ragweed ([4]; 31 g ai/ha, scale 0 to 100) | Plant response rating, Wheat ([5]; 125 g ai/ha, scale of 0 to 100) | Plant response rating, Wheat ([5]; 16 g ai/ha, scale 0 to 100) | Plant response rating, Wheat ([5]; 31 g ai/ha, scale 0 to 100) | Plant response rating, Wheat ([5]; 62 g ai/ha, scale 0 to 100) | Plant response rating, Ryegrass, Italian ([7]; 16 g ai/ha, scale 0 to 100) | Plant response rating, Corn (corn (Zea mays); 16 g ai/ha, scale 0 to 100) | Plant response rating, Nutsedge, Yellow ([8]; 16 g ai/ha, scale 0 to 100) | Plant response rating, Nutsedge, Yellow ([8]; 31 g ai/ha, scale 0 to 100) | Plant response rating, Nutsedge, Yellow ([8]; 62 g ai/ha, scale 0 to 100) | Plant response rating, Rice (rice (Oryza sativa))
10: Plant response rating, Morningglory ([9]; 16 g ai/ha, scale 0 to 100) | Plant response rating, Velvetleaf ([10]; 16 g ai/ha, scale 0 to 100)
70: Plant response rating, Velvetleaf ([10]; 62 g ai/ha, scale 0 to 100)
15: Plant response rating, Blackgrass ([3]; 31 g ai/ha, scale 0 to 100) | Plant response rating, Soybean (soybean (Glycine max); 62 g ai/ha, scale 0 to 100) | Plant response rating, Corn (corn (Zea mays); 31 g ai/ha, scale 0 to 100) | Plant response rating, Barnyardgrass [14]
55: Plant response rating, Oilseed Rape ([1]; 31 g ai/ha, scale 0 to 100)
95: Plant response rating, Waterhemp ([2]; 16 g ai/ha, scale 0 to 100) | Plant response rating, Foxtail, Giant ([11]; 16 g ai/ha, scale 0 to 100)
5: Plant response rating, Blackgrass ([3]; 16 g ai/ha, scale 0 to 100) | Plant response rating, Soybean (soybean (Glycine max); 16 g ai/ha, scale 0 to 100) | Plant response rating, Soybean (soybean (Glycine max); 31 g ai/ha, scale 0 to 100)
30: Plant response rating, Ryegrass, Italian ([7]; 31 g ai/ha, scale 0 to 100) | Plant response rating, Nutsedge, Yellow ([8]; 125 g ai/ha, scale of 0 to 100) | Plant response rating, Velvetleaf ([10]; 31 g ai/ha, scale 0 to 100)
40: Plant response rating, Ragweed ([4]; 62 g ai/ha, scale 0 to 100)
90: Plant response rating, Blackgrass ([3]; 62 g ai/ha, scale of 0 to 100) | Plant response rating, Ryegrass, Italian ([7]; 125 g ai/ha, scale of 0 to 100)
100: Plant response rating, Oilseed Rape ([1]; 125 g ai/ha, scale of 0 to 100) | Plant response rating, Oilseed Rape ([1]; 62 g ai/ha, scale 0 to 100) | Plant response rating, Waterhemp ([2]; 125 g ai/ha, scale of 0 to 100) | Plant response rating, Waterhemp ([2]; 31 g ai/ha, scale 0 to 100) | Plant response rating, Waterhemp ([2]; 62 g ai/ha, scale 0 to 100) | Plant response rating, Blackgrass ([3]; 125 g ai/ha, scale of 0 to 100) | Plant response rating, Lambsquarters ([6]; 62 g ai/ha, scale 0 to 100) | Plant response rating, Velvetleaf ([10]; 125 g ai/ha, scale of 0 to 100) | Plant response rating, Foxtail, Giant ([11]; 62 g ai/ha, scale of 0 to 100) | Plant response rating, Foxtail, Giant ([11]; 125 g ai/ha, scale of 0 to 100) | Plant response rating, Foxtail, Giant ([11]; 31 g ai/ha, scale 0 to 100) | Plant response rating, Crabgrass, Large ([12]; 62 g ai/ha, scale of 0 to 100) | Plant response rating, Crabgrass, Large ([12]; 125 g ai/ha, scale of 0 to 100) | Plant response rating, Crabgrass, Large ([12]; 31 g ai/ha, scale 0 to 100) | Plant response rating, Sedge, Umbrella [13]
65: Plant response rating, Morningglory ([9]; 125 g ai/ha, scale of 0 to 100)
25: Plant response rating, Soybean (soybean (Glycine max); 125 g ai/ha, scale of 0 to 100)
98: Plant response rating, Lambsquarters ([6]; 125 g ai/ha, scale of 0 to 100) | Plant response rating, Crabgrass, Large ([12]; 16 g ai/ha, scale 0 to 100)
50: Plant response rating, Lambsquarters ([6]; 16 g ai/ha, scale 0 to 100)
60: Plant response rating, Lambsquarters ([6]; 31 g ai/ha, scale 0 to 100)

O=C(CCC(F)(F)F)c1c(Br)cccc1Oc1ncc(Cl)cn1 [Compound 92]
45: Plant response rating, Blackgrass ([3]; 16 g ai/ha, scale 0 to 100)
55: Plant response rating, Ragweed ([4]; 31 g ai/ha, scale 0 to 100) | Plant response rating, Ryegrass, Italian ([7]; 62 g ai/ha, scale 0 to 100)
40: Plant response rating, Soybean (soybean (Glycine max); 31 g ai/ha, scale 0 to 100) | Plant response rating, Corn (corn (Zea mays); 125 g ai/ha, scale of 0 to 100) | Plant response rating, Morningglory ([9]; 31 g ai/ha, scale 0 to 100)
15: Plant response rating, Corn (corn (Zea mays); 31 g ai/ha, scale 0 to 100)
100: Plant response rating, Oilseed Rape ([1]; 125 g ai/ha, scale of 0 to 100) | Plant response rating, Oilseed Rape ([1]; 31 g ai/ha, scale 0 to 100) | Plant response rating, Oilseed Rape ([1]; 62 g ai/ha, scale 0 to 100) | Plant response rating, Waterhemp ([2]; 125 g ai/ha, scale of 0 to 100) | Plant response rating, Waterhemp ([2]; 31 g ai/ha, scale 0 to 100) | Plant response rating, Waterhemp ([2]; 62 g ai/ha, scale 0 to 100) | Plant response rating, Blackgrass ([3]; 125 g ai/ha, scale of 0 to 100) | Plant response rating, Blackgrass ([3]; 62 g ai/ha, scale 0 to 100) | Plant response rating, Lambsquarters ([6]; 125 g ai/ha, scale of 0 to 100) | Plant response rating, Lambsquarters ([6]; 31 g ai/ha, scale 0 to 100) | Plant response rating, Lambsquarters ([6]; 62 g ai/ha, scale 0 to 100) | Plant response rating, Velvetleaf ([10]; 125 g ai/ha, scale of 0 to 100) | Plant response rating, Velvetleaf ([10]; 62 g ai/ha, scale 0 to 100) | Plant response rating, Foxtail, Giant ([11]; 125 g ai/ha, scale of 0 to 100) | Plant response rating, Foxtail, Giant ([11]; 31 g ai/ha, scale 0 to 100) | Plant response rating, Foxtail, Giant ([11]; 62 g ai/ha, scale 0 to 100) | Plant response rating, Crabgrass, Large ([12]; 125 g ai/ha, scale of 0 to 100) | Plant response rating, Crabgrass, Large ([12]; 16 g ai/ha, scale 0 to 100) | Plant response rating, Crabgrass, Large ([12]; 31 g ai/ha, scale 0 to 100) | Plant response rating, Crabgrass, Large ([12]; 62 g ai/ha, scale 0 to 100) | Plant response rating, Sedge, Umbrella [13]
70: Plant response rating, Soybean (soybean (Glycine max); 62 g ai/ha, scale 0 to 100) | Plant response rating, Morningglory ([9]; 125 g ai/ha, scale of 0 to 100)
50: Plant response rating, Nutsedge, Yellow ([8]; 125 g ai/ha, scale of 0 to 100)
95: Plant response rating, Ryegrass, Italian ([7]; 125 g ai/ha, scale of 0 to 100)
60: Plant response rating, Ragweed ([4]; 125 g ai/ha, scale of 0 to 100) | Plant response rating, Ragweed ([4]; 62 g ai/ha, scale 0 to 100) | Plant response rating, Soybean (soybean (Glycine max); 125 g ai/ha, scale of 0 to 100) | Plant response rating, Morningglory ([9]; 62 g ai/ha, scale 0 to 100)
20: Plant response rating, Wheat ([5]; 125 g ai/ha, scale of 0 to 100)
75: Plant response rating, Velvetleaf ([10]; 31 g ai/ha, scale 0 to 100)
25: Plant response rating, Barnyardgrass [14]
0: Plant response rating, Wheat ([5]; 31 g ai/ha, scale 0 to 100) | Plant response rating, Wheat ([5]; 62 g ai/ha, scale 0 to 100) | Plant response rating, Corn (corn (Zea mays); 16 g ai/ha, scale 0 to 100) | Plant response rating, Rice (rice (Oryza sativa))
80: Plant response rating, Blackgrass ([3]; 31 g ai/ha, scale 0 to 100)
5: Plant response rating, Ryegrass, Italian ([7]; 31 g ai/ha, scale 0 to 100) | Plant response rating, Nutsedge, Yellow ([8]; 31 g ai/ha, scale 0 to 100) | Plant response rating, Nutsedge, Yellow ([8]; 62 g ai/ha, scale 0 to 100)
35: Plant response rating, Corn (corn (Zea mays); 62 g ai/ha, scale 0 to 100)
